Results on 30 molecules are retold here after patent US9334246B2, “Substituted triazines for malaria treatment and chemoprophylaxis” (The United States of America, as represented by the …, priority 2013, dated 2016).

Data set [1] has as its system P. falciparum C235. Kind of data set: Malaria SYBR Green Fluorescence Assay, C235 strain. The data set is classed as cell-based, Plasmodium falciparum. The following applies: for C235: SYBR Green Assay.
Data set [2] deals with hERG potassium ion channel (Homo sapiens, UniProt Q12809). In words: hERG patch clamp assay (% inhibition at 10 μM). As to conditions: for hERG (% inhibition): 10 μM.
Chain of hERG potassium ion channel (Q12809 whole entry): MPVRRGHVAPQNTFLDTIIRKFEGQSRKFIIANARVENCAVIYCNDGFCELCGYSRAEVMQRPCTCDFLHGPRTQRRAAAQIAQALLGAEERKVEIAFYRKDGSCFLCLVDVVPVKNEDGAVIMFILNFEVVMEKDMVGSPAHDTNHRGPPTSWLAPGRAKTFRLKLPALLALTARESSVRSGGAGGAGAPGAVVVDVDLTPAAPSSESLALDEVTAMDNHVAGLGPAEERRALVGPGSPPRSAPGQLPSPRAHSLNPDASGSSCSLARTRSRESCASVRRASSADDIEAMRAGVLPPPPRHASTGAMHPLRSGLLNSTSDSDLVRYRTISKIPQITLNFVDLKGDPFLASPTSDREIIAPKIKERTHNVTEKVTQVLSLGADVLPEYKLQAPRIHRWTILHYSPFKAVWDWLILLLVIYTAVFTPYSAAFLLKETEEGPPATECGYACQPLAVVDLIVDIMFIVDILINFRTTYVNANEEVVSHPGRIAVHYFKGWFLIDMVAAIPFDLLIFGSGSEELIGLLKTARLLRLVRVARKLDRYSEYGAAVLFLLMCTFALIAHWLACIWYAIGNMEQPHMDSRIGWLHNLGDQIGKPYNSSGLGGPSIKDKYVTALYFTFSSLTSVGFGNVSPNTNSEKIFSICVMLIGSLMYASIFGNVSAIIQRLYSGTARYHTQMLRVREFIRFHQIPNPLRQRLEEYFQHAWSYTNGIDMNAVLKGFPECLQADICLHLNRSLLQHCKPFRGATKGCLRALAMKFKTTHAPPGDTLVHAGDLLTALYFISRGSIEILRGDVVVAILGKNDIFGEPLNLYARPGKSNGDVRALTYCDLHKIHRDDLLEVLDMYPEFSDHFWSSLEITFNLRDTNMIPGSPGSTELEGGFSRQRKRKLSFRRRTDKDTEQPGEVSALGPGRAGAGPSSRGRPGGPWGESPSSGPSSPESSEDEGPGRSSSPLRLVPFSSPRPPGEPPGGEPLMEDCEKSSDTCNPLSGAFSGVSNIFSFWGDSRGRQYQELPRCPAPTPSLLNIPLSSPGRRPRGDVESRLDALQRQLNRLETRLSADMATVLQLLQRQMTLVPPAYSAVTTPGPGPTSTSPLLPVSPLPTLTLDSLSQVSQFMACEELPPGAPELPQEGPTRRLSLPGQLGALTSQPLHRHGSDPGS
Data set [3] concerns P. falciparum D6. In words: Malaria SYBR Green Fluorescence Assay, D6 strain. The data set is classed as cell-based, Plasmodium falciparum. As to conditions: for D6: SYBR Green Assay.
Data set [4] has as its system P. falciparum W2. Kind of data set: Malaria SYBR Green Fluorescence Assay, W2 strain. Format: cell-based, Plasmodium falciparum. The following applies: for W2: SYBR Green Assay.
The mark [5] stands for this setting: % inhibition at 10 μM, patch clamp.

The molecule “tert-butyl 5-(4-(4-chlorophenyl)-6-(trichloromethyl)-1,3,5-triazin-2-yl)-2,5-diazabicyclo[2.2.1]heptane-2-carboxylate [Example 6]” returned a C235 in data set [1] of 44 ng/mL. Moreover, in data set [2] (setting [5]), the hERG is 96%. Besides, in data set [3], the D6 is reported as 33 ng/mL. The same molecule had a W2 in data set [4] of 26 ng/mL.

With `CCN1CCC(CNc2nc(-c3ccc(-c4ccccc4)cc3)nc(C(Cl)(Cl)Cl)n2)CC1` [Cmpd 306], in data set [1], the C235 worked out at 87 ng/mL. In data set [2] (setting [5]), the hERG was determined as 38%. Further, the D6 in data set [3] stood at 54 ng/mL. In addition, the W2 in data set [4] worked out at 30 ng/mL.

In data set [1], `COc1ccccc1-c1nc(NCC(C)(C)N)nc(C(Cl)(Cl)Cl)n1` [Cmpd 217] came in with a C235 of 20 ng/mL. In addition, the hERG in data set [2] (setting [5]) is recorded as 62%. Further, the D6 in data set [3] is 43 ng/mL. Besides, the W2 in data set [4] amounted to 20 ng/mL.

With `CN(C)C1CCN(c2nc(-c3ccc(Cl)c(Cl)c3)nc(C(Cl)(Cl)Cl)n2)C1` (stereo not shown) [Cmpd 20], in data set [2] (setting [5]), the hERG is given as 50%.

In turn, `CCN(CC)CCNc1nc(Cc2ccc(OC)cc2)nc(C(Cl)(Cl)Cl)n1` [Cmpd 59] returned a C235 in data set [1] of 288 ng/mL. The molecule also showed a hERG in data set [2] (setting [5]) of 100%. Further, the D6 in data set [3] is recorded as 290 ng/mL. Also, in data set [4], the W2 is on record as 153 ng/mL.

`CSc1ccc(-c2nc(NCCN3CCCC3)nc(C(Cl)(Cl)Cl)n2)cc1` [Cmpd 47] gave a hERG in data set [2] (setting [5]) of 95%.

On to “4-((4-((pyridin-2-ylmethyl)amino)-6-(trichloromethyl)-1,3,5-triazin-2-yl)amino)phenol [Example 14]”, for which the C235 in data set [1] stood at 36 ng/mL. Also, the hERG in data set [2] (setting [5]) is 11%. In data set [3], this molecule displayed a D6 of 37 ng/mL. The molecule also gave a W2 in data set [4] of 24 ng/mL.

Molecule `COc1ccccc1Nc1nc(N2CCN(C)CC2)nc(C(Cl)(Cl)Cl)n1` [Cmpd 65] returned a C235 in data set [1] of 31 ng/mL. Moreover, the hERG in data set [2] (setting [5]) amounted to 83%. In addition, the D6 in data set [3] is 32 ng/mL. The molecule further yielded a W2 in data set [4] of 32 ng/mL.

Take `CN1CCC(Nc2nc(-c3cccc(C(F)(F)F)c3)nc(C(Cl)(Cl)Cl)n2)CC1` [Cmpd 212]: the C235 in data set [1] is recorded as 25 ng/mL. This molecule also showed a hERG in data set [2] (setting [5]) of 80%. The D6 in data set [3] came to 45 ng/mL. Further, in data set [4], the W2 is recorded as 16 ng/mL.

For the molecule `CC(C)(C)OC(=O)N1CC2CC1CN2c1nc(-c2ccc(S(C)(=O)=O)cc2)nc(C(Cl)(Cl)Cl)n1` (stereo not shown) [Compound 715, CC(C)(C)OC(═O)N1CC2CC1CN2c3nc(nc(n3)C(Cl)(Cl)Cl)c4ccc(cc4)S(═O)(═O)C], the C235 in data set [1] is listed as 185 ng/mL. The hERG in data set [2] (hERG activity as % inhibition) is given as 19%. In data set [3], the D6 is 126 ng/mL. The same molecule returned a W2 in data set [4] of 63 ng/mL.

Molecule `Clc1ccc(-c2nc(N3CCNCC3)nc(C(Cl)(Cl)Cl)n2)cc1Cl` [Cmpd 25] registered a hERG in data set [2] (setting [5]) of 10%.

On to “CCN(CC)CC(C)Nc1nc(Nc2ccc(Cl)c(Cl)c2)nc(n1)C(Cl)(Cl)Cl [Compound 642]”, for which the “C235 (SYBR Green Assay IC50)” value in data set [1] turned out to be 0.013 µg/mL. Also, in data set [2], the “hERG (% inhibition)” value stood at 76%. For the same molecule, the “D6 (SYBR Green Assay IC50)” value in data set [3] was found to be 0.005 µg/mL. In data set [4], the “W2 (SYBR Green Assay IC50)” value was 0.003 µg/mL.

“CC(CN(C)C)Nc1nc(Nc2ccc(Cl)c(Cl)c2)nc(n1)C(Cl)(Cl)Cl [Compound 640]”: the “C235 (SYBR Green Assay IC50)” value in data set [1] amounted to 0.01 µg/mL. Further, in data set [2], the “hERG (% inhibition)” value is reported as 23%. The “D6 (SYBR Green Assay IC50)” value in data set [3] turned out to be 0.008 µg/mL. Also, in data set [4], the “W2 (SYBR Green Assay IC50)” value was determined as 0.008 µg/mL.

Turning to `Clc1ccc(-c2nc(NCCCCCN3CCCC3)nc(C(Cl)(Cl)Cl)n2)cc1` [Cmpd 561], in data set [1], the “C235 (SYBR Green Assay IC50)” value amounted to 0.03869 µg/mL. The “hERG (% inhibition)” value in data set [2] is recorded as 63%. Besides, in data set [3], the “D6 (SYBR Green Assay IC50)” value is 0.03967 µg/mL. The “W2 (SYBR Green Assay IC50)” value in data set [4] came out at 0.02784 µg/mL.

In data set [2] (setting [5]), `CN1CCN(c2nc(-c3ccc(Cl)c(Cl)c3)nc(C(Cl)(Cl)Cl)n2)CC1` [Cmpd 22] came in with a hERG of 33%.

For `CC(C)N1CCC(CNc2nc(-c3ccc4ccccc4c3)nc(C(Cl)(Cl)Cl)n2)CC1` [Cmpd 494], the “C235 (SYBR Green Assay IC50)” value in data set [1] was 0.023 µg/mL. Also, the “D6 (SYBR Green Assay IC50)” value in data set [3] worked out at 0.038 µg/mL. Besides, the “W2 (SYBR Green Assay IC50)” value in data set [4] turned out to be 0.018 µg/mL.

`COc1ccc(-c2nc(NCCN3CCCC3)nc(C(Cl)(Cl)Cl)n2)c2ccccc12` [Cmpd 278] had a C235 in data set [1] of 48 ng/mL. In data set [3], the D6 worked out at 35 ng/mL. The same molecule displayed a W2 in data set [4] of 17 ng/mL.

“CCN1CCCC(C1)NC1═NC(NC2═CC═C(OC(F)(F)F)C═C2)═NC(═N1)C(Cl)(Cl)Cl [Compound 655]” returned a C235 in data set [1] of 28 ng/mL. For the same molecule, the D6 in data set [3] is on record as 19 ng/mL. Also, the W2 in data set [4] is 11 ng/mL.

Molecule “CS(═O)(═O)c1ccc(cc1)c2nc(Nc3cccnc3)nc(n2)C(Cl)(Cl)Cl [Compound 654]” gave a C235 in data set [1] of 271 ng/mL. The molecule further had a D6 in data set [3] of 198 ng/mL. The W2 in data set [4] came to 185 ng/mL.

`CC(C)N1CCC(CNc2nc(-c3ccc(S(C)(=O)=O)cc3)nc(C(Cl)(Cl)Cl)n2)CC1` [Cmpd 491]: the “C235 (SYBR Green Assay IC50)” value in data set [1] was determined as 0.034 µg/mL. The “D6 (SYBR Green Assay IC50)” value in data set [3] amounted to 0.048 µg/mL. Moreover, in data set [4], the “W2 (SYBR Green Assay IC50)” value was found to be 0.018 µg/mL.

Turning to `CC(C)N1CCC(CNc2nc(-c3cc(Cl)cc(Cl)c3)nc(C(Cl)(Cl)Cl)n2)CC1` [Cmpd 495], the “C235 (SYBR Green Assay IC50)” value in data set [1] came out at 0.013 µg/mL. For the same molecule, in data set [3], the “D6 (SYBR Green Assay IC50)” value was found to be 0.036 µg/mL. In addition, the “W2 (SYBR Green Assay IC50)” value in data set [4] amounted to 0.01 µg/mL.

In data set [1], “FC(F)(F)OC1═CC═C(NC2═NC(═NC(═N2)C(Cl)(Cl)Cl)N2CC3CC2CN3)C═C1 [Compound 725]” came in with a C235 of 93 ng/mL. In data set [3], this molecule gave a D6 of 64 ng/mL. Besides, in data set [4], the W2 was determined as 53 ng/mL.

Take `Clc1ccc(-c2nc(N3CCOCC3)nc(C(Cl)(Cl)Cl)n2)cc1` [Cmpd 31]: in data set [2] (setting [5]), the hERG stood at 12%.

For the molecule `COc1ccc(-c2nc(NCC3CCN(C(C)C)CC3)nc(C(Cl)(Cl)Cl)n2)c2ccccc12` [Cmpd 498], the “C235 (SYBR Green Assay IC50)” value in data set [1] worked out at 0.125 µg/mL. Further, the “D6 (SYBR Green Assay IC50)” value in data set [3] stood at 0.247 µg/mL. For the same molecule, the “W2 (SYBR Green Assay IC50)” value in data set [4] is 0.066 µg/mL.

Regarding `COc1ncccc1Nc1nc(N2CCCN(C)CC2)nc(C(Cl)(Cl)Cl)n1` [Cmpd 379], the “C235 (SYBR Green Assay IC50)” value in data set [1] worked out at 0.159 µg/mL. Further, the “D6 (SYBR Green Assay IC50)” value in data set [3] stood at 0.066 µg/mL. For the same molecule, in data set [4], the “W2 (SYBR Green Assay IC50)” value is 0.092 µg/mL.

Regarding `Clc1cccc(-c2nc(NCCN3CCCC3)nc(C(Cl)(Cl)Cl)n2)c1` [Cmpd 334], the C235 in data set [1] amounted to 15 ng/mL. Besides, the D6 in data set [3] was determined as 9 ng/mL. For the same molecule, the W2 in data set [4] is 2 ng/mL.

As to `CN(C)CCCNc1nc(-c2ccc(-c3ccccc3)cc2)nc(C(Cl)(Cl)Cl)n1` [Cmpd 445], in data set [1], the “C235 (SYBR Green Assay IC50)” value was found to be 0.189 µg/mL. For the same molecule, in data set [3], the “D6 (SYBR Green Assay IC50)” value stood at 0.151 µg/mL. Besides, the “W2 (SYBR Green Assay IC50)” value in data set [4] is 0.116 µg/mL.

Regarding `Clc1ccc(-c2nc(NCc3cccnc3)nc(C(Cl)(Cl)Cl)n2)cc1` [Cmpd 142], the C235 in data set [1] worked out at 469 ng/mL. This molecule also returned a D6 in data set [3] of 306 ng/mL. The W2 in data set [4] is reported as 112 ng/mL.

As to `Clc1cccc(-c2nc(NCCc3cnccn3)nc(C(Cl)(Cl)Cl)n2)c1` [Cmpd 472], in data set [1], the “C235 (SYBR Green Assay IC50)” value amounted to 0.244 µg/mL. In addition, in data set [3], the “D6 (SYBR Green Assay IC50)” value amounted to 0.449 µg/mL. Also, the “W2 (SYBR Green Assay IC50)” value in data set [4] is 0.051 µg/mL.

“CC1═CC═C(C═C1)C1═NC(NCC2(N)CCCCC2)═NC(═N1)C(Cl)(Cl)Cl [Compound 660]” returned a C235 in data set [1] of 17 ng/mL. In data set [3], this molecule registered a D6 of 8 ng/mL. For the same molecule, the W2 in data set [4] was 9 ng/mL.
